In patent US10336732B2, “1-heterocyclyl isochromanyl compounds and analogs for treating CNS disorders” (Sunovion Pharmaceuticals Inc., priority 2015, dated 2019):

Biological target: T1, 5-HT7 (Homo sapiens, UniProt P34969)
T1 construct: expressed in transfected cells; host or cells: CHO cells
Test: In vitro radioligand binding assay, 5-HT7, [3H]LSD
Set-up: concentration or dose not given beside the values
Settings: human recombinant (CHO cells)
Experimental: Certain compounds were tested by in vitro binding assays using standard procedures. […] These receptors and assays are well known to those skilled in the art, as exemplified by the following: Abramovitz, M. et al. (2000), Biochem. Biophys. Acta., 1483: 285-293 (EP4, IP (PGI2)); Aharony, D. et al. (1993), Mol. Pharmacol., 44: 356-363 (NK2); Ardati, A. et al. (1997), Mol. Pharmacol., 51: 816-824 (NOP (ORL1)); Bignon, E. et al. (1999), J. Pharmacol. Exp. Ther. 289: 742-751 (CCK1 (CCKA)); Bloomquist, B. T. et al. (1998), Biochem. Biophys. Res. Commun., 243: 474-479 (GAL2); Brockhaus, M. et al. (1990), Proc. Natl. Acad. Sci. U.S.A., 87: 3127-3131 (TNF-α); Brown, G. B. (1986), J. Neurosci., 6: 2064-2070 (Na+ channel (site 2)); Buchan, K. W. et al. (1994), Brit. J. Pharmacol., 112: 1251-1257 (ETA); Cesura, A. M. et al. (1990), Mol. Pharmacol., 37: 358-366 (MAO-A); Choi, D. S. et al. (1994), FEBS Lett., 352: 393-399 (5-HT2B); Clark, A. F. et al. (1996), Invest. Ophtalmol. Vis. Sci., 37: 805-813 (GR); Couvineau, A. et al. (1985), Biochem. J., 231: 139-143 (VPAC1 (VIP1)); Dorje, F. et al. (1991), J. Pharmacol. Exp. Ther., 256: 727-733 (M1, M2, M3, M4); Ferry, G. et al. (2001), Eur. J. Pharmacol., 417: 77-89 (PPARγ); Fuchs, S. et al. (2001), Mol. Med., 7: 115-124 (ETB); Fuhlendorff, J. et al. (1990), Proc. Natl. Acad. Sci. U.S.A., 87: 182-186 (Y2); Ganapathy M E. et al. (1999), J. Pharmacol. Exp. Ther., 289: 251-260 (sigma (non-selective)); Gopalakrishnan, M. et al. (1996), J. Pharmacol. Exp. Ther., 276: 289-297 (N neuronal α4β2); Greengrass, P. and Bremner, R. (1979), Eur. J. Pharmacol., 55: 323-326 (α1 (non-selective)); Grandy, D. K. et al. (1989), Proc. Natl. Acad. Sci. U.S.A., 86: 9762-9766 (D25); Guard, S. et al. (1993), Eur. J. Pharmacol., 240:177-184 (BB (non-selective)); Heuillet, E. et al. (1993), J. Neurochem., 60: 868-876 (NK1, P2X); Hope, A. G. et al. (1996), Brit. J. Pharmacol., 118: 1237-1245 (5-HT3); Hoyer, D. et al. (1985), Eur. J. Pharmacol., 118: 1-12 (5-HT1B); Hugues, M. et al. (1982), J. Biol. Chem., 257: 2762-2769 (5-HT2A, SKCa channel); Joseph, S. S. et al. (2004), Naun.-Sch. Arch. Pharm., 369: 525-532 (β2); Le, M. T. et al. (2005), Eur. J. Pharmacol., 513: 35-45 (AT1); Le Fur, G. et al. (1983), Life Sci., 33: 449-457) (BZD (peripheral); Lee, Y. M. et al. (1993), J. Biol. Chem., 268: 8164-8169 (CCK2 (CCKB)); Leurs, R. et al. (1994), Brit. J. Pharmacol., 112: 847-854 (H2); Levin, M. C. et al. (2002), J. Biol. Chem., 277: 30429-30435 (11); Lewin, A. H. et al. (1989), Mol. Pharmacol., 35: 189-194 (Cl− channel (GABA-gated)); Lukas, R. J. (1986), J. Neurochem., 46: 1936-1941 (N muscle-type); Luthin, D. R. et al. (1995), Mol. Pharmacol., 47: 307-313; (A2A); Mackenzie, R. G. et al. (1994), Eur. J. Pharmacol., 266: 79-85 (D3); Mulheron, J. G. et al. (1994), J. Biol. Chem., 269: 12954-12962 (5-HT1A); Meng, F. et al. (1993), Proc. Natl. Acad. Sci. U.S.A., 90: 9954-9958 (κ (KOP)); Monsma, F. J. et al. (1993), Mol. Pharmacol., 43: 320-327 (5-HT6); Neote, K. et al. (1993), Cell, 72: 415-425 (CCR1); Pacholczyk, T. et al. (1991), Nature, 350: 350-354 (sst (non-selective, norepinephrine transporter)); Peralta, E. G. et al. (1987), Embo. J., 6: 3923-3929 (M3); Pristupa, Z. B. et al. (1994), Mol. Pharmacol., 45: 125-135 (dopamine transporter); Pruneau, D. et al. (1998), Brit. J. Pharmacol., 125: 365-372 (B2); Rees, S. et al. (1994), FEBS Lett., 355: 242-246 (5-HT5a); Reynolds, I. J. et al. (1986), J. Pharmacol. Exp. Ther., 237: 731-738 (Ca2+ channel (L, verapamil site)); Rinaldi-Carmona, M. et al. (1996), J. Pharmacol. Exp. Ther., 278: 871-878 (CB1); Salvatore, C. A. et al. (1993), Proc. Natl. Acad. Sci. U.S.A., 90: 10365-10369 (A3); Sarau, H. M. et al. (1997), J. Pharmacol. Exp. Ther., 281: 1303-1311 (NK3); Schioth, H. B. et al. (1997), Neuropeptides, 31: 565-571 (MC4); Sharples, C. […]

T1 sequence (P34969 whole entry): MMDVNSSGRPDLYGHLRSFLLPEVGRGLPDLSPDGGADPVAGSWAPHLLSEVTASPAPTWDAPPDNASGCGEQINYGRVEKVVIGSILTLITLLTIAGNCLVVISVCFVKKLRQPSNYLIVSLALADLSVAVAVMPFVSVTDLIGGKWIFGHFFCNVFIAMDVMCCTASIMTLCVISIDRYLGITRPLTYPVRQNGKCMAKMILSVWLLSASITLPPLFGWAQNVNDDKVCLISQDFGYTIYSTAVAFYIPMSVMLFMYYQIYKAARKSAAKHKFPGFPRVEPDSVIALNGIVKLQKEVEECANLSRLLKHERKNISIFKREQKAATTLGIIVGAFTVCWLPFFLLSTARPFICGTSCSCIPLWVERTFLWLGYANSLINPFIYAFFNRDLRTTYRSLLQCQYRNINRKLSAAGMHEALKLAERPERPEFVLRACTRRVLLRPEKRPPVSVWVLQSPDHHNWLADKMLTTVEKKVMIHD

First: Fc1cccc2c1[C@H]([C@@H]1CCN1)OCC2 [Compound I-83, (S)-2-((R)-8-fluoroisochroman-1-yl)azetidine]
Second: Fc1cccc2c1[C@H]([C@@H]1CCCN1)OCC2 [Compound I-1, (S)-2-((R)-8-fluoroisochroman-1-yl)pyrrolidine]
The “5HT7 percent inhibition of specific binding” value (“5HT7 percent inhibition” for short) of the first is higher: 99% for the first, 88% for the second.

First: Fc1cccc2c1CCO[C@@H]2[C@@H]1CCN1 [Compound I-94, (S)-2-((S)-5-fluoroisochroman-1-yl)azetidine]
Second: Fc1cccc2c1CCO[C@@H]2[C@H]1CCN1 [Compound I-96, (R)-2-((S)-5-fluoroisochroman-1-yl)azetidine]
The “5HT7 percent inhibition” value of the first is higher: 74% for the first, 69% for the second.

First: Fc1ccc2c(c1)CCO[C@H]2[C@@H]1CCN1 [Compound I-90, (S)-2-((R)-6-fluoroisochroman-1-yl)azetidine]
Second: Fc1ccc2c(c1)CCO[C@H]2[C@@H]1CCCN1 [Compound I-9, (S)-2-((R)-6-fluoroisochroman-1-yl)pyrrolidine]
The “5HT7 percent inhibition” value of the first is higher: 96% for the first, 80% for the second.

Going from `Clc1ccc2c(c1)[C@H]([C@@H]1CCCN1)OCC2` [Compound I-29, (S)-2-((R)-7-chloroisochroman-1-yl)pyrrolidine] to `Fc1ccc2c(c1)[C@H]([C@@H]1CCCN1)OCC2` [Compound I-5, (2S)-2-((R)-7-fluoroisochroman-1-yl)pyrrolidine], the “5HT7 percent inhibition” value rises from 52% to 60%.
